test: Human HepG2 cell viability assay in 384 well format; assay type: toxicity, cell-based; parameters: dose 125 nL, time 70.5 hour; cytotoxicity at 70.5 h: concentration not given beside the values; settings: HepG2 cells, read-out: Inhibition

Going from `CN1C(=O)CO[C@H]2CN(C(=O)Nc3ccc(F)cc3)C[C@H]21` to `CC(=O)Nc1ncc(S(=O)(=O)Nc2ccc(F)cc2)s1`, the cytotoxicity at 70.5 h rises from -7.97% to 30.4%.

Going from `CC(=O)N1[C@H](Cn2cncn2)C[C@@H]2CN(S(C)(=O)=O)CC[C@@H]21` to `CC(C)n1ccc(C(=O)N2CCCC(n3cncn3)C2)n1` (stereo not given), the cytotoxicity at 70.5 h falls from -8.6% to -10.6%.

Compared with `CCOc1ncccc1C(=O)NCC(O)c1ccc(F)c(F)c1` (stereo not given), `CC(CNC(=O)c1ccncc1F)Oc1ccc(F)cc1` (stereo not given) is higher in cytotoxicity at 70.5 h: -6.21% for the first, -0.61% for the second.

Going from `Cc1ccc(CN(Cc2cccnc2)C2CC(C)(C)NC(C)(C)C2)s1` to `Cc1nc(CN2CCC2(CCCc2ccccn2)C(=O)N(C)C)co1` (stereo not given), the cytotoxicity at 70.5 h falls from 9.23% to -5.18%.

First: N[C@@H]1CC[C@@H]1NC(=O)c1ccccc1OC(F)(F)C(F)F
Second: O=C(Cc1noc(C(=O)NCC2CC2)n1)Nc1cccc(C(F)(F)F)c1
The cytotoxicity at 70.5 h of the first is higher: 3.75% for the first, -7.55% for the second.

Compared with `Cc1c(Cl)cccc1NCc1nc2n(n1)CCCCC2`, `Cc1cnc(C)c(N2CCC(Cc3ccccc3Cl)(C(=O)O)CC2)n1` is lower in cytotoxicity at 70.5 h: -7.61% for the first, -8.45% for the second.

Compared with `c1ccc(-c2nc(CN3CCCC3Cn3cccn3)no2)cc1` (stereo not given), `CN(Cc1ccsc1)C(=O)CN1CCCC1Cn1cccn1` (stereo not given) is lower in cytotoxicity at 70.5 h: 1.06% for the first, -13.8% for the second.

Compared with `O=C(N[C@@H]1C[C@H]2CC[C@@H]1C2)C1(Oc2ccc(Cl)cc2)CCNCC1`, `Cc1ccc(CN2C[C@@H]3[C@@H](C(=O)NCC4CC4)CCS(=O)(=O)[C@@H]3C2)cc1` is higher in cytotoxicity at 70.5 h: -2.25% for the first, -1.55% for the second.

Going from `Cc1cc(C)n(CCC(=O)N2CCC(c3nc(C)no3)CC2)n1` to `COc1ccc(-c2cc(C3CCN(C(C)=O)CC3)ccn2)cc1`, the cytotoxicity at 70.5 h rises from -12.5% to -7.99%.

Compared with `Cn1cc(C2CC(=O)NC23CCN(C(=O)c2cccnc2)CC3)cn1` (stereo not given), `Cn1cc(C(=O)NCc2cncc3c2CCN(c2ccccn2)C3)cn1` is higher in cytotoxicity at 70.5 h: -3.63% for the first, 17.4% for the second.

First: CCOC1COC2(CCN(S(=O)(=O)c3cccc(F)c3)CC2)C1 (stereo not given)
Second: OC(CN1CCN(Cc2cccc(F)c2)CC1)C1CC1 (stereo not given)
The cytotoxicity at 70.5 h of the first is lower: -15.5% for the first, -11.3% for the second.

Compared with `COc1ccc(C(=O)NCCN(C)C)c(I)c1`, `CC(NC(=O)NCCOc1ccc(F)c(F)c1)c1nncn1C` (stereo not given) is lower in cytotoxicity at 70.5 h: 2.46% for the first, -0.895% for the second.

Going from `CC(CC(=O)N1CCCS1(=O)=O)c1ccccc1C(F)(F)F` (stereo not given) to `CNC(=O)NCC(=O)N1CCCC1Cc1cccc(F)c1` (stereo not given), the cytotoxicity at 70.5 h falls from 3.27% to 2.87%.

Compared with `Cc1nn(C)c(C)c1C1CCCN1Cc1nc(C)c2ccccc2n1` (stereo not given), `CC(C)Oc1ccccc1C1CC(=O)Nc2c1cnn2C` (stereo not given) is lower in cytotoxicity at 70.5 h: 5.7% for the first, -11.9% for the second.

Compared with `O=C(c1ccncc1)N1Cc2ccccc2OC2(CCOCC2)C1`, `CN(C(=O)NCc1ccncc1)C1CCN(c2ccccc2)C1=O` (stereo not given) is higher in cytotoxicity at 70.5 h: -18.2% for the first, 11.5% for the second.

Going from `O=C(N1CCCC1)N1CCC(c2nccn2Cc2cscn2)CC1` to `COc1ccnc(N2CCN(C(=O)N3CCOCC3)CC2)n1`, the cytotoxicity at 70.5 h falls from -5.23% to -10.7%.

First: COc1ccc(-n2ccnc2-c2cnc(C(C)C)nc2)cc1C(=O)O
Second: CCc1ccccc1-n1nnc(C(=O)O)c1-c1ccccn1
The cytotoxicity at 70.5 h of the first is higher: -3.39% for the first, -8.12% for the second.

Going from `CCn1c(CN(C)C)nnc1C1CCN(Cc2ccc(Cl)cc2)CC1` to `CN(C)C(=O)CN1C[C@@H]2CC[C@H](C1)N(Cc1ccc3nsnc3c1)C2`, the cytotoxicity at 70.5 h rises from 0.347% to 3.82%.

Compared with `Cn1cccc1C(=O)N[C@H]1CN(Cc2ccoc2)[C@@H]2CCCO[C@H]12`, `Cc1cc(C(=O)N2C[C@@H]3CCCO[C@@H]3[C@H](N3CCOCC3)C2)c(C)[nH]1` is lower in cytotoxicity at 70.5 h: 17.5% for the first, -12.4% for the second.

Going from `Fc1cccc(CN2CCC3(CCCN3c3ncccn3)CC2)c1` to `OCCN1CCC2(CCc3cc(-c4ccoc4)ccc32)CC1`, the cytotoxicity at 70.5 h falls from 5.31% to -2.95%.

First: COC(=O)C(CO)NC(=O)c1cn(Cc2ccccc2F)nn1 (stereo not given)
Second: Cc1c(C(C)NC(=O)Nc2ccccc2F)cnn1C (stereo not given)
The cytotoxicity at 70.5 h of the first is lower: -8.74% for the first, -5.46% for the second.

First: CC(NC(=O)c1ccnn1C)c1ccc(OCC2CC2)c(F)c1 (stereo not given)
Second: CCC(C(=O)NC1CCCCC1)n1ccc2ncccc2c1=O (stereo not given)
The cytotoxicity at 70.5 h of the first is higher: 10.9% for the first, -11.8% for the second.

Going from `COc1ccc(NCC2(O)CCNCC2)cc1OC` to `CCS(=O)(=O)N1C[C@H]2CC[C@](O)(c3ccc(C)cc3)[C@H]2C1`, the cytotoxicity at 70.5 h falls from 6.97% to 2.5%.

Compared with `O=C1N(c2ccc(F)cc2)Cc2nc(=O)n(Cc3cccc(Cl)c3)n21`, `CN(C)C(=O)CN1C[C@H]2CN(Cc3cccc(F)c3)C(=O)[C@H]2C1` is lower in cytotoxicity at 70.5 h: -0.858% for the first, -5.27% for the second.

First: CCc1cnc(CN(C)C2CCN(CC3CCOCC3)C2)o1 (stereo not given)
Second: Fc1ccccc1Oc1nccnc1C1CCN(C2CCOCC2)CC1
The cytotoxicity at 70.5 h of the first is lower: 4.66% for the first, 30.2% for the second.

Going from `CN(CCN1CCOCC1)C(=O)CCCOCCc1ccccc1` to `O=C(C1CCOCC1)N1C[C@H]2C[C@H](OCc3ccccc3)C[C@H]2C1`, the cytotoxicity at 70.5 h falls from 13.1% to -3.41%.

First: COCc1cc(N2CCOC(c3ccc(F)cc3)C2)ncn1 (stereo not given)
Second: CC(C)C1CN(S(=O)(=O)N2CCCC2)CCCN1Cc1ccc(F)cc1 (stereo not given)
The cytotoxicity at 70.5 h of the first is lower: -14.9% for the first, -3.07% for the second.

Going from `COC(=O)Cn1ccc(NS(=O)(=O)c2ccc3c(c2)CCC3)n1` to `COC(=O)CN1CCSC(c2ccccc2)C1` (stereo not given), the cytotoxicity at 70.5 h falls from 17% to -13.2%.

Compared with `CC(C)c1nc2n(n1)CC(NCc1nnc(C(C)C)o1)CC2` (stereo not given), `CCc1nnc2n1CC(CNCc1nc(-c3ccsc3)no1)CC2` (stereo not given) is higher in cytotoxicity at 70.5 h: -19.6% for the first, -4.57% for the second.

Compared with `CSc1ccccc1NC(=O)N1C[C@@H](N(C)C)[C@H](c2ccc(C)cc2)C1`, `CN(C)C(=O)N1CCN(C(=O)Nc2nc(-c3ccccc3)ns2)CC1` is higher in cytotoxicity at 70.5 h: -13.9% for the first, -5.92% for the second.

First: CCc1nnc(C(C)N2CCCN(C(=O)Oc3ccccc3)CC2)o1 (stereo not given)
Second: CCc1nnc(CN2CCN(C(C)=O)CC2)o1
The cytotoxicity at 70.5 h of the first is higher: 2.06% for the first, -1.65% for the second.

Going from `CC(C)c1nnc(NC(=O)NCc2ccnc(N(C)C)c2)s1` to `Cc1nc(-c2ccc(Cl)s2)sc1C(=O)N(C)CC(N)=O`, the cytotoxicity at 70.5 h rises from -19.1% to 11.9%.

Going from `CC(C)(CNc1ccc2ccc(F)cc2n1)NS(C)(=O)=O` to `CS(=O)(=O)CCSc1nnc(Cc2ccccc2F)o1`, the cytotoxicity at 70.5 h rises from -7.19% to -1.57%.

First: O=C(Cn1nc2c(cc1=O)CSCC2)N[C@@H](Cc1ccccc1)C(=O)O
Second: O=c1n(CCSCc2ccccc2Cl)nc2ccccn12
The cytotoxicity at 70.5 h of the first is higher: -5.32% for the first, -6.77% for the second.

Going from `CC(C)N1CCCC1c1cc(CO)[nH]n1` (stereo not given) to `CCN1CCN(C[C@@H]2CN(Cc3cnc(C(C)C)nc3)C[C@@H]2CO)CC1`, the cytotoxicity at 70.5 h rises from -4.38% to 13.2%.

Compared with `Cc1nc(C2(NCC(=O)NCc3cccs3)CCCCC2)no1`, `O=C(NC1CCC1)[C@@H]1C[C@@H]2CCN(Cc3cccs3)C[C@@H]2O1` is higher in cytotoxicity at 70.5 h: -2.14% for the first, 7.52% for the second.

Compared with `O=C(NCCc1nccs1)N1CCC(n2cccc2)CC1`, `O=C(NCCNc1cnccn1)N1CCN(c2nccs2)CC1` is higher in cytotoxicity at 70.5 h: -9.14% for the first, -8.94% for the second.

First: CCCN1CCN(CC(O)c2ccc(OC(F)(F)F)cc2)CC1 (stereo not given)
Second: CC(Cn1cccn1)NCC(=O)N(C)Cc1ccsc1 (stereo not given)
The cytotoxicity at 70.5 h of the first is lower: -0.084% for the first, 35.4% for the second.

Compared with `CCN(CC)S(=O)(=O)CCNc1ncnc2cc(F)c(F)cc12`, `Cc1[nH]nc(CCC(=O)NCC2COc3ccccc3C2)c1C` (stereo not given) is lower in cytotoxicity at 70.5 h: -1.89% for the first, -6.82% for the second.

First: Cc1cnc(NC(=O)N2CCCCCC2)s1
Second: Cc1nc(NCCC23CCCN2CCC3)cc(C2CCCNC2)n1 (stereo not given)
The cytotoxicity at 70.5 h of the first is lower: -4.75% for the first, -3.41% for the second.

— ChEMBL document CHEMBL3507680, “University of Dundee, Gates Library screen for HepG2 cell viability”
